Experiments:
[1] = biological target: T1, BCR-FMS BaF3 cells (Homo sapiens, UniProt P07333); experiment: BaF3 BCR-FMS cell proliferation assay (ATPlite); format: cell-based; conditions: read-out: Inhibition of Cell Proliferation IC50, BCR/BaF3 Fms
T1 construct: fused on or other part: P11274 (Breakpoint cluster region protein)
T1 sequence (P07333 582-910): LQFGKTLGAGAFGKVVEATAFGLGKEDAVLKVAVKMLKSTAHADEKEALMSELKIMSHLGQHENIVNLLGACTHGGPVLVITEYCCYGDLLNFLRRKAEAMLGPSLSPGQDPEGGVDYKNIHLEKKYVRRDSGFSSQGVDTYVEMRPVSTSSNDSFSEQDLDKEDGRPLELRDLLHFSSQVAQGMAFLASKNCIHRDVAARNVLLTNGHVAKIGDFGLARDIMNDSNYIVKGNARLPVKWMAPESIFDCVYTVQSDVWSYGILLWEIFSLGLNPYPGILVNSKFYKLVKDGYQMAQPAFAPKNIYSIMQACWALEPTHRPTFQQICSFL
Method: (§1) Compounds are assessed in a variety of cell based assays. For example BaF3 cells engineered with any of BCR-FMS, BCR-KIT, BCR-FLT3, BCR-NTRK1, BCR-NTRK2, and BCR-NTRK3, are used in cell proliferation assays to assess inhibitory activity of Fms, Kit, Flt-3, TrkA, TrkB, and TrkC, respectively. An MV-4-11 (leukemia) cell proliferation assay is used to assess inhibitory activity in Flt-3, and SKNSH (human neuroblastoma) cell proliferation assay is used to assess efficacy of Fms/Trk inhibitors. Additional cells may be assayed similarly to assess the efficacy of Fms/Trk inhibitors, such as MiaPaCa (human pancreatic cancer) and Capan-1 (human pancreatic carcinoma) cells. Reagent and assay conditions are as follows: • BaF3 cells: • Maintained in RPMI containing 10% FBS, 1% PenStrep, 1% NEAA, and 1% L-Glutamine, supplemented with 1 mg/mL G418 and 5% WEHI-CM (or recombinant murine IL-3). • Confluent cells are split 1:50 to 1:100 every 3-4 days. • MV-4-11 cells: • Maintained in Iscove's Modified Dulbecco's Medium containing 10% FBS. • Confluent cells are split 1:4 every 3-4 days. • SKNSH cells: RPMI containing 10% FBS. On day 1, cells are counted, then centrifuged in a conical tube for 5 minutes at 1000 rpm. The supernatant is removed and cells are re-suspended as follows: • BaF3: resuspend in growth media +1 mg/mL G418 (without WEHFIL-3) to 2×10^5 cells/mL. • MV-4-11: resuspend in growth media to 5×10^5 cells/mL. • SKNSH: resuspend in growth media to 2×10^4 cells/mL. The cells are plated (50 μL, 150 μL for SKNSH cells) in each well of a 96-well dish (Corning 3610) and incubated at 37° C. in 5% CO2 overnight, cells plated to a final concentration of cells as follows: • BaF3: 10,000 cells per well. • MV-4-11: 25,000 cells per well. • SKNSH: 3,000 cells per well. On day 2, compound at a maximum concentration of 5 mM is serially diluted 1:3 for a total of 8 point titration with DMSO as a control. A 1 μL aliquot of each dilution point is added to 249 μL growth media and 50 μL is added to a well containing cells, providing 10 μM compound for the maximum concentration point. The cells are incubated for 3 days at 37° C. in 5% CO2. For SKNSH cells, a 0.75 μL aliquot of appropriate dilution in DMSO is added to 150 μL of cells. On day 5, ATPlite 1 step Luminescence Assay System (Perkin Elmer #6016739) is brought to room temperature along with the cell cultures. ATPlite is added to each well as follows: • BaF3: 25 μL per well. • MV-4-11: 40 μL per well. • SKNSH: 20 μL per well. The cells are incubated at room temperature for 10 minutes, then luminescence is read on Safire reader. The measured luminescence correlates directly with cell number, such that the reading as a function of compound concentration is used to determine the IC50 value.
(§2) It is understood that the results of these assays may vary as assay conditions are varied. Inhibition levels determined under the conditions described herein represent a relative activity for the compounds tested under the specific conditions employed. The cell based assays are likely to show variability due to the complexity of the system and the sensitivity thereof to any changes in the assay conditions. […] Results for compounds that are tested and show substantially no inhibition below the highest tested concentration are represented as “-” in the tables below. In some instances, the compounds were not tested in all of the assays, or assay results were not valid, as indicated by NA in the tables below.

[2] = biological target: T2, BCR-NTRK2 BaF3 cells (Homo sapiens, UniProt Q16620); experiment: BaF3 BCR-NTRK2 cell proliferation assay (ATPlite); format: cell-based; conditions: read-out: Inhibition of Cell Proliferation IC50, BCR/BaF3 TrkB
T2 construct: fused on or other part: P11274 (Breakpoint cluster region protein)
Method: as §1, §2

[3] = biological target: CYP2D6 (Homo sapiens, UniProt P10635); experiment: CYP2D6 inhibition (fluorescent substrate AMMC); format: in vitro ADME; conditions: read-out: Cyp IC50 2D6
Method: (§3) CYP (Cytochrome P450) enzymes are the major drug metabolizing enzymes present in the liver. The inhibition of CYP enzyme activity (IC50) for each of CYP1A2, CYP2C19, CYP2C9, CYP2D6, CYP3A4(BFC) and CYP3A4(BQ) is determined for compounds, where inhibition of metabolism of a known substrate leads to a decrease in the fluorescence of the metabolized product. The fluorescence of the product is monitored as a function of compound concentration. Compounds are dissolved in DMSO to a concentration of 100 mM. These are diluted 1 μL into 82 μL of acetonitrile. An 11 μL aliquot of this solution is then added to 204 μL of cofactor mix (1.3% NADPH Regeneration system Solution A, 1.04% NADPH Regeneration system Solution B from BD Biosciences, 5% acetonitrile and 0.05% DMSO). These are then serially diluted 1:1 (160 μL to 160 μL co-factor mix) for a total of 10 points. A 10 μL aliquot of this final mixture is dispensed into 384 well assay plates and incubated for 10 minutes at 37° C. […] Assay plates are incubated at 37° C. (CYP1A2-15 min; CYP2C9-45 min; CYP2C19, 2D6 and 3A4-30 min) and read in a Tecan Safire 2 plate reader (CYP1A2, 2C19 and 3A4 409 ex/460 em; CYP2C9 and 2D6 409 ex/530 em). The signal versus compound concentration is used to determine the IC50. The enzymes and substrates for this assay are obtained from BD Biosciences.

[4] = biological target: CYP3A4(BFC) (Homo sapiens, UniProt P08684); experiment: CYP3A4(BFC) inhibition; format: in vitro ADME; conditions: CYP3A4, substrate BFC; read-out: Cyp IC50 3A4(BFC)
Method: as §3

CYP2D6, sequence (P10635 whole entry): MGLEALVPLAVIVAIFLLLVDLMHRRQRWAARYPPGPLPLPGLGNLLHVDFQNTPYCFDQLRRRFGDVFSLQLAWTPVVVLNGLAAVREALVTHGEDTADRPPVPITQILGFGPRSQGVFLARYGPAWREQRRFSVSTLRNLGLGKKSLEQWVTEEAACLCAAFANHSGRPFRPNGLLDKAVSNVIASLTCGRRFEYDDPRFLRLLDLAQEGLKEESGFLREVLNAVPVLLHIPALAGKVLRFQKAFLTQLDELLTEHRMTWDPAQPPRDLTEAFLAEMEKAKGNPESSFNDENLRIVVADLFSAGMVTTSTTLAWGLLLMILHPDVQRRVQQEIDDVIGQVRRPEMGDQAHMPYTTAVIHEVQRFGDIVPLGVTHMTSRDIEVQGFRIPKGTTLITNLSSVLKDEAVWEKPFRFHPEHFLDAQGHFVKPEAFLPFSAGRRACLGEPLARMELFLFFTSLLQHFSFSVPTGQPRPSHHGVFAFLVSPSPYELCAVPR
T2 sequence (Q16620 538-807): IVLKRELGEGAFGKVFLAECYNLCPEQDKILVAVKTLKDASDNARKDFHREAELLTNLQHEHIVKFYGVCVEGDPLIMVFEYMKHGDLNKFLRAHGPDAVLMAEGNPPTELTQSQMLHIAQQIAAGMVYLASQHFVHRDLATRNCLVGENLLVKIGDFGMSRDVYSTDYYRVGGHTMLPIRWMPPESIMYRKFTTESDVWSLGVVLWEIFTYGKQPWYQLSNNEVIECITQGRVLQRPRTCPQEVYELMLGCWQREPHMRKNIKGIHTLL
CYP3A4(BFC), sequence (P08684 whole entry): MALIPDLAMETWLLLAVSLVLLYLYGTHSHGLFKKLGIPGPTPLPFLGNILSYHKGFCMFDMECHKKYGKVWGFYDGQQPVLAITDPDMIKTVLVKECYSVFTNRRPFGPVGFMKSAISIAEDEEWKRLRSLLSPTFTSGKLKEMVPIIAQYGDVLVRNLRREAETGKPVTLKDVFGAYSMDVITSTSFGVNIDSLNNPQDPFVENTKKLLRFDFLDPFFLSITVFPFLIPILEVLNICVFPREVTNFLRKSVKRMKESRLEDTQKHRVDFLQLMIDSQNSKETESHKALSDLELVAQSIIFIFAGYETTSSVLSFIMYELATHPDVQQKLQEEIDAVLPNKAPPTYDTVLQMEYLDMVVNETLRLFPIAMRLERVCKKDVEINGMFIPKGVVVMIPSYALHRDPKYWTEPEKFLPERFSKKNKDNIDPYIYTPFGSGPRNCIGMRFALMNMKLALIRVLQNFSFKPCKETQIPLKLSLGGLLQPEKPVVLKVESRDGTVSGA

IC50 [1]	IC50 [2]	IC50 [3]	IC50 [4]	SMILES
< 0.01 µM	< 0.01 µM	> 10 µM	> 10 µM	CCC(CC)Nc1ncnc2[nH]cc(C(=O)c3ccc(Nc4ccc(OC)nc4)nc3F)c12 [Compound P-4077, [4-(1-ethylpropylamino)-7H-pyrrolo[2,3-d]pyrimidin-5-yl]-[2-fluoro-6-[(6-methoxy-3-pyridyl)amino]-3-pyridyl]methanone]
< 0.01 µM	< 0.01 µM	> 10 µM	> 10 µM	CCNc1ncnc2[nH]cc(C(=O)c3ccc(Nc4ccc(OC)nc4)nc3F)c12 [Compound P-4081, [4-(ethylamino)-7H-pyrrolo[2,3-d]pyrimidin-5-yl]-[2-fluoro-6-[(6-methoxy-3-pyridyl)amino]-3-pyridyl]methanone]
< 0.1 µM	> 10 µM	> 10 µM	> 10 µM	Fc1nc(NC2CCC(F)(F)CC2)ccc1Cc1c[nH]c2ncc(Cl)cc12 [Compound P-3013, [5-(5-Chloro-1H-pyrrolo[2,3-b]pyridin-3-ylmethyl)-6-fluoro-pyridin-2-yl]-(4,4-difluoro-cyclohexyl)-amine]
< 0.1 µM	< 0.01 µM	> 10 µM	> 10 µM	O=C(c1ccc(NC2CCC(F)(F)CC2)nc1F)c1c[nH]c2ncnc(NCC(F)(F)F)c12 [Compound P-4061, [6-[(4,4-difluorocyclohexyl)amino]-2-fluoro-3-pyridyl]-[4-(2,2,2-trifluoroethylamino)-7H-pyrrolo[2,3-d]pyrimidin-5-yl]methanone]
< 0.1 µM	< 0.01 µM	< 5 µM	> 10 µM	CCCCNc1ncnc2[nH]cc(C(=O)c3ccc(Nc4ccc(CC)nc4)nc3F)c12 [Compound P-4100, [4-(butylamino)-7H-pyrrolo[2,3-d]pyrimidin-5-yl]-[6-[(6-ethyl-3-pyridyl)amino]-2-fluoro-3-pyridyl]methanone]
< 0.1 µM	< 0.01 µM	> 10 µM	> 10 µM	CCCCNc1ncnc2[nH]cc(C(=O)c3ccc(Nc4ccc(OC)nc4)nc3F)c12 [Compound P-4080, [4-(butylamino)-7H-pyrrolo[2,3-d]pyrimidin-5-yl]-[2-fluoro-6-[(6-methoxy-3-pyridyl)amino]-3-pyridyl]methanone]
< 0.01 µM	< 0.01 µM	> 10 µM	> 10 µM	COc1ccc(Nc2ccc(C(=O)c3c[nH]c4ncnc(NC(C)C)c34)c(F)n2)cn1 [Compound P-4066, [2-fluoro-6-[(6-methoxy-3-pyridyl)amino]-3-pyridyl]-[4-(isopropylamino)-7H-pyrrolo[2,3-d]pyrimidin-5-yl]methanone]
< 0.1 µM	< 0.1 µM	> 10 µM	> 10 µM	CNc1ncnc2[nH]cc(C(=O)c3ccc(NC4CCC(F)(F)CC4)nc3)c12 [Compound P-4089, [6-[(4,4-difluorocyclohexyl)amino]-3-pyridyl]-[4-(methylamino)-7H-pyrrolo[2,3-d]pyrimidin-5-yl]methanone]
< 0.1 µM	< 1 µM	> 10 µM	> 10 µM	Clc1ccc(Nc2ncc(Cc3c[nH]c4ncc(Cl)cc34)cn2)cc1 [Compound P-3011, (4-Chloro-phenyl)-[5-(5-chloro-1H-pyrrolo[2,3-b]pyridin-3-ylmethyl)-pyrimidin-2-yl]-amine]
< 0.01 µM	< 0.01 µM	> 10 µM	> 10 µM	CCc1ccc(Nc2ccc(C(=O)c3c[nH]c4ncnc(NCC(C)C)c34)c(F)n2)cn1 [Compound P-4121, [6-[(6-ethyl-3-pyridyl)amino]-2-fluoro-3-pyridyl]-[4-(isobutylamino)-7H-pyrrolo[2,3-d]pyrimidin-5-yl]methanone]
< 0.01 µM	< 0.01 µM	> 10 µM	> 10 µM	CC(C)Nc1ncnc2[nH]cc(C(=O)c3ccc(NC4CCCCC4)nc3F)c12 [Compound P-4101, [6-(cyclohexylamino)-2-fluoro-3-pyridyl]-[4-(isopropylamino)-7H-pyrrolo[2,3-d]pyrimidin-5-yl]methanone]
< 0.01 µM	< 0.01 µM	> 10 µM	> 10 µM	CCNc1ncnc2[nH]cc(C(=O)c3ccc(Nc4ccc(C5CC5)nc4)nc3F)c12 [Compound P-4060, [6-[(6-cyclopropyl-3-pyridyl)amino]-2-fluoro-3-pyridyl]-[4-(ethylamino)-7H-pyrrolo[2,3-d]pyrimidin-5-yl]methanone]
< 0.01 µM	< 0.1 µM	< 5 µM	> 10 µM	CNc1ncnc2[nH]cc(C(=O)c3ccc(Nc4ccc(C)nc4)nc3F)c12 [Compound P-4115, [2-fluoro-6-[(6-methyl-3-pyridyl)amino]-3-pyridyl]-[4-(methylamino)-7H-pyrrolo[2,3-d]pyrimidin-5-yl]methanone]
< 0.1 µM	< 0.1 µM	< 5 µM	> 10 µM	COc1cncc(Nc2ccc(C(=O)c3c[nH]c4ncnc(NC5CC5)c34)c(F)n2)c1 [Compound P-4107, [4-(cyclopropylamino)-7H-pyrrolo[2,3-d]pyrimidin-5-yl]-[2-fluoro-6-[(5-methoxy-3-pyridyl)amino]-3-pyridyl]methanone]
< 0.01 µM	< 0.1 µM	> 10 µM	< 5 µM	Fc1cc(Cc2c[nH]c3ncnc(NC4CC4)c23)cnc1NC1CCC(F)(F)CC1 [Compound P-4127, N-cyclopropyl-5-[[6-[(4,4-difluorocyclohexyl)amino]-5-fluoro-3-pyridyl]methyl]-7H-pyrrolo[2,3-d]pyrimidin-4-amine]

Source: patent US8901118B2, “Compounds and methods for kinase modulation, and indications therefor” (Plexxikon Inc., priority 2010, dated 2014)
